Source: patent US20260327214A1, “1,3,4-OXADIAZOLE DERIVATIVE COMPOUNDS AS HISTONE DEACETYLASE 6 INHIBITOR, AND USES THEREOF” (CHONG KUN DANG PHARMACEUTICAL CORP., priority 2022, published 2026)

Assays:
human recombinant HDAC1 = molecular target: T1, human recombinant HDAC1 (Homo sapiens, UniProt Q13547); experiment: HDAC1 enzyme activity inhibition test (HDAC Fluorometric Drug Discovery Kit); type: biochemical; conditions: 30° C., 60 minutes, 10 μM substrate
T1 construct: purchased Enzo Life Science BML-SE456
T1 sequence (Q13547 whole entry): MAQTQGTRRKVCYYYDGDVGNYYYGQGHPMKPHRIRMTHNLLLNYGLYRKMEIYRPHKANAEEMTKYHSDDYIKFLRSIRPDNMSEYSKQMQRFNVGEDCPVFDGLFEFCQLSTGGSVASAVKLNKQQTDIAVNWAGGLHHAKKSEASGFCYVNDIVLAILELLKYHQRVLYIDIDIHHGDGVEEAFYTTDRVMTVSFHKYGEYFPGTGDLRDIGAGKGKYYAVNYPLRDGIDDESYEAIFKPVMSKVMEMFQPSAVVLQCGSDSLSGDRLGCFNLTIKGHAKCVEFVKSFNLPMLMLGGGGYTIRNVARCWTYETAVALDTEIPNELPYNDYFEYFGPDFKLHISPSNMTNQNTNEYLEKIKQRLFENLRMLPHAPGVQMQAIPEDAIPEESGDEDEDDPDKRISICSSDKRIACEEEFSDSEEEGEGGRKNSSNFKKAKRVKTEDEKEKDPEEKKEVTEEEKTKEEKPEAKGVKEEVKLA
Summary of the method: (§1)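 IC50 derived from fluorescence (Ex 360, Em 460) following 30 min development with Developer II. Each reaction held 0.3 μg human recombinant HDAC1 or HDAC6, 10 μM Fluor de Lys SIRT1 substrate and 5-fold serially diluted compound, incubated 60 min at 30 °C.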

human recombinant HDAC6 = molecular target: T2, human recombinant HDAC6 (Homo sapiens, UniProt Q9UBN7); experiment: HDAC6 enzyme activity inhibition test (HDAC Fluorometric Drug Discovery Kit); type: biochemical; conditions: for HDAC6 selectivity (fold): HDAC6 over HDAC1; for IC50: human recombinant HDAC6, same protocol as HDAC1
T2 construct: purchased Calbiochem 382180
T2 sequence (Q9UBN7 1-1215): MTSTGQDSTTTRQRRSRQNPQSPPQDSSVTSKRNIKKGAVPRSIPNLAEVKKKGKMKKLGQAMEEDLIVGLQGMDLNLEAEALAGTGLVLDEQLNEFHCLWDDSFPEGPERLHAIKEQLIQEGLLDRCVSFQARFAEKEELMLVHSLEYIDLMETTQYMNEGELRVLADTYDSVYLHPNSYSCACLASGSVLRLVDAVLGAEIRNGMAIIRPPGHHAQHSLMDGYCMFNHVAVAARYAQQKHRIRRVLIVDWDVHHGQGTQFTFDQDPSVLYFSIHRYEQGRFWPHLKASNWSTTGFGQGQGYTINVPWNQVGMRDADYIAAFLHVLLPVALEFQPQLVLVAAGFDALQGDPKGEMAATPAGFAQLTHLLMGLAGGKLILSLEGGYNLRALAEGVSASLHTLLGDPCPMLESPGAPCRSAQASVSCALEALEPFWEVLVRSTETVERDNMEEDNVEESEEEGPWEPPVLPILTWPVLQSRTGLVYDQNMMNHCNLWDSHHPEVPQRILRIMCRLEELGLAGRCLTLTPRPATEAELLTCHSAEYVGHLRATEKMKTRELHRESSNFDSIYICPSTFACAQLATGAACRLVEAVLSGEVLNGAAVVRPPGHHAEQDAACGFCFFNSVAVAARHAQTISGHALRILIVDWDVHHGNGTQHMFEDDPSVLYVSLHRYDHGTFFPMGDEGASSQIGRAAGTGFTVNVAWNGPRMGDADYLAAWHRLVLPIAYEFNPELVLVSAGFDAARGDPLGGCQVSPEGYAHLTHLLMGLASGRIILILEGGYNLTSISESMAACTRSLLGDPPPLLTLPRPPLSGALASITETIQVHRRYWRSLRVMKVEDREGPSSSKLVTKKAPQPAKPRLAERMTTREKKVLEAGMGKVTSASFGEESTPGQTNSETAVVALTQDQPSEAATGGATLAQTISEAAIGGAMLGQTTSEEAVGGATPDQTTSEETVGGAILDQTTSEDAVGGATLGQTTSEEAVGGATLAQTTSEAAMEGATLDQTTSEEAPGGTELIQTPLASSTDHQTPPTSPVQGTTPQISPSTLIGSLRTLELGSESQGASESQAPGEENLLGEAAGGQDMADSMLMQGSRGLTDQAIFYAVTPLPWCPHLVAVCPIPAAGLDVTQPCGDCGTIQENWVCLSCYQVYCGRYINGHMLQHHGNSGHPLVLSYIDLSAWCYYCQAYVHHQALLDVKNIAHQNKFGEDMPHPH
Summary of the method: as §1

Row | SMILES | IC50 (human recombinant HDAC1) [nM] | HDAC6 selectivity (fold) (human recombinant HDAC6) | IC50 (human recombinant HDAC6) [nM]
1 | O=c1oc(-c2ccccc2)cn1Cc1ccc(-c2nnc(C(F)F)o2)cn1 [Compound 142, 3-((5-(5-(difluoromethyl)-1,3,4-oxadiazol-2-yl)pyridin-2-yl)methyl)-5-phenyloxazol-2(3H)-one] | > 50000 | 484 | 103
2 | O=c1oc(-c2cccc(F)c2)cn1Cc1ccc(-c2nnc(C(F)F)o2)cn1 [Compound 143, 3-((5-(5-(difluoromethyl)-1,3,4-oxadiazol-2-yl)pyridin-2-yl)methyl)-5-(3-fluorophenyl)oxazol-2(3H)-one] | > 50000 | 374 | 134
3 | Cn1c(-c2ccccc2)cn(Cc2ccc(-c3nnc(C(F)F)o3)cn2)c1=O [Compound 144, 1-((5-(5-(difluoromethyl)-1,3,4-oxadiazol-2-yl)pyridin-2-yl)methyl)-3-methyl-4-phenyl-1,3-dihydro-2H-imidazol-2-one] | > 50000 | 185 | 271

Next, values leading:

Row | IC50 (human recombinant HDAC1) [nM] | HDAC6 selectivity (fold) (human recombinant HDAC6) | IC50 (human recombinant HDAC6) [nM] | SMILES
4 | > 50000 | 1114 | 44.9 | CCN1CCc2cc(-c3nn(Cc4ccc(-c5nnc(C(F)F)o5)cn4)c(=S)o3)sc2C1 [Compound 140, 3-[[5-[5-(difluoromethyl)-1,3,4-oxadiazol-2-yl]-2-pyridyl]methyl]-5-(6-ethyl-5,7-dihydro-4H-thieno[2,3-c]pyridin-2-yl)-1,3,4-oxadiazol-2-thione]
5 | > 50000 | 893 | 56 | CC(C)N1CCc2cc(-c3nn(Cc4ccc(-c5nnc(C(F)F)o5)cn4)c(=S)o3)sc2C1 [Compound 141, 3-[[5-[5-(difluoromethyl)-1,3,4-oxadiazol-2-yl]-2-pyridyl]methyl]-5-(6-isopropyl-5,7-dihydro-4H-thieno[2,3-c]pyridin-2-yl)-1,3,4-oxadiazol-2-thione]
